From the supplement of paper PMC10307832

Assays:
Assay in all cases: relative viability (nuclei count vs DMSO), 5 days (fraction); higher = more cells survive
HCC-44 = tested on: HCC-44
Method in brief: (§1)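 A single step with final 0.05% Triton X-100, 1% formaldehyde and 1 ug/ml Hoechst fixed the cells and stained nuclei 5 days after treatment. Lung cancer cell lines in 1536-well plates had been treated by pin tool the day after seeding with one drug alone or a fixed anchor-drug dose plus five library-drug doses (not always all listed) in √10 steps, and nuclei were counted on 4× images. Relative viability is the ratio of nuclei in treated wells to nuclei in vehicle wells, taken as the median of duplicate plates.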

NCI-H2023 = tested on: NCI-H2023
Method in brief: as §1

LC-2-ad = tested on: LC-2-ad
Method in brief: as §1

UMC-11 = tested on: UMC-11
Method in brief: as §1

ABC-1 = tested on: ABC-1
Method in brief: as §1

PC-14 = tested on: PC-14
Method in brief: as §1

SW 1573 = tested on: SW 1573
Method in brief: as §1

COR-L23 = tested on: COR-L23
Method in brief: as §1

NCI-H2085 = tested on: NCI-H2085
Method in brief: as §1

NCI-H358 = tested on: NCI-H358
Method in brief: as §1

EPLC-272H = tested on: EPLC-272H
Method in brief: as §1

NCI-H1993 = tested on: NCI-H1993
Method in brief: as §1

HOP-62 = tested on: HOP-62
Method in brief: as §1

NCI-H1355 = tested on: NCI-H1355
Method in brief: as §1

NCI-H838 = tested on: NCI-H838
Method in brief: as §1

LU99A = tested on: LU99A
Method in brief: as §1

NCI-H650 = tested on: NCI-H650
Method in brief: as §1

HCC-15 = tested on: HCC-15
Method in brief: as §1

NCI-H1915 = tested on: NCI-H1915
Method in brief: as §1

HARA = tested on: HARA
Method in brief: as §1

NCI-H2347 = tested on: NCI-H2347
Method in brief: as §1

NCI-H1651 = tested on: NCI-H1651
Method in brief: as §1

NCI-H2126 = tested on: NCI-H2126
Method in brief: as §1

Work on `CCN(CC)CCCCNc1ncc2cc(-c3cc(OC)cc(OC)c3)c(NC(=O)NC(C)(C)C)nc2n1` + Cc1nc(NC(=O)N2CCC[C@H]2C(N)=O)sc1-c1ccnc(C(C)(C)C(F)(F)F)c1 [Alpelisib] (partner 2 µM) yielded a relative viability (HCC-44; first compound 0.01 µM) of 0.93, a relative viability (HCC-44; first compound 0.03162 µM) of 0.9 and a relative viability (HCC-44; first compound 0.1 µM) of 1.12. The relative viability (HCC-44; first compound 0.3162 µM) was 0.87, the relative viability (HCC-44; first compound 1 µM) was 0.772 and the relative viability (NCI-H2023; first compound 0.01 µM) was 0.685. For the same compound, the relative viability (NCI-H2023; first compound 0.03162 µM) was 0.608, the relative viability (NCI-H2023; first compound 0.1 µM) was 0.615 and the relative viability (NCI-H2023; first compound 0.3162 µM) was 0.676. It also gave a relative viability (NCI-H2023; first compound 1 µM) of 0.529, a relative viability (LC-2-ad; first compound 0.01 µM) of 1.03 and a relative viability (LC-2-ad; first compound 0.03162 µM) of 0.918. The relative viability (LC-2-ad; first compound 0.1 µM) was 0.942, the relative viability (LC-2-ad; first compound 0.3162 µM) was 1.07 and the relative viability (LC-2-ad; first compound 1 µM) was 0.865. It also gave a relative viability (UMC-11; first compound 0.01 µM) of 1.08, a relative viability (UMC-11; first compound 0.03162 µM) of 0.921 and a relative viability (UMC-11; first compound 0.1 µM) of 1.02. For the same compound, the relative viability (UMC-11; first compound 0.3162 µM) was 1.17, the relative viability (UMC-11; first compound 1 µM) was 0.88 and the relative viability (ABC-1; first compound 0.01 µM) was 1.2. The relative viability (ABC-1; first compound 0.03162 µM) was 0.997, the relative viability (ABC-1; first compound 0.1 µM) was 1.06 and the relative viability (ABC-1; first compound 0.3162 µM) was 1.47. The relative viability (ABC-1; first compound 1 µM) was 1.13, the relative viability (PC-14; first compound 0.01 µM) was 1.02 and the relative viability (PC-14; first compound 0.03162 µM) was 1.08. It also gave a relative viability (PC-14; first compound 0.1 µM) of 0.879, a relative viability (PC-14; first compound 0.3162 µM) of 1.16 and a relative viability (PC-14; first compound 1 µM) of 0.943. It also gave a relative viability (SW 1573; first compound 0.01 µM) of 0.727, a relative viability (SW 1573; first compound 0.03162 µM) of 0.874 and a relative viability (SW 1573; first compound 0.1 µM) of 0.929. It also gave a relative viability (SW 1573; first compound 0.3162 µM) of 0.796, a relative viability (SW 1573; first compound 1 µM) of 0.782 and a relative viability (COR-L23; first compound 0.01 µM) of 0.819. For the same compound, the relative viability (COR-L23; first compound 0.03162 µM) was 1.02, the relative viability (COR-L23; first compound 0.1 µM) was 1.19 and the relative viability (COR-L23; first compound 0.3162 µM) was 0.787. The relative viability (COR-L23; first compound 1 µM) was 0.856, the relative viability (NCI-H2085; first compound 0.01 µM) was 1.04 and the relative viability (NCI-H2085; first compound 0.03162 µM) was 0.999. For the same compound, the relative viability (NCI-H2085; first compound 0.1 µM) was 1.02, the relative viability (NCI-H2085; first compound 0.3162 µM) was 0.983 and the relative viability (NCI-H2085; first compound 1 µM) was 0.907. For the same compound, the relative viability (NCI-H358; first compound 0.01 µM) was 1.06, the relative viability (NCI-H358; first compound 0.03162 µM) was 0.901 and the relative viability (NCI-H358; first compound 0.1 µM) was 1.01. It also gave a relative viability (NCI-H358; first compound 0.3162 µM) of 0.848, a relative viability (NCI-H358; first compound 1 µM) of 0.725 and a relative viability (EPLC-272H; first compound 0.01 µM) of 0.918. The relative viability (EPLC-272H; first compound 0.1 µM) was 1.01, the relative viability (EPLC-272H; first compound 0.3162 µM) was 1.07 and the relative viability (EPLC-272H; first compound 1 µM) was 0.883. It also gave a relative viability (NCI-H1993; first compound 0.01 µM) of 0.635, a relative viability (NCI-H1993; first compound 0.03162 µM) of 0.707 and a relative viability (NCI-H1993; first compound 0.1 µM) of 0.691. The relative viability (NCI-H1993; first compound 0.3162 µM) was 0.677, the relative viability (NCI-H1993; first compound 1 µM) was 0.672 and the relative viability (HOP-62; first compound 0.01 µM) was 0.82. It also gave a relative viability (HOP-62; first compound 0.03162 µM) of 1.1, a relative viability (HOP-62; first compound 0.1 µM) of 0.89 and a relative viability (HOP-62; first compound 0.3162 µM) of 1.04. The relative viability (HOP-62; first compound 1 µM) was 0.726, the relative viability (NCI-H1355; first compound 0.01 µM) was 0.776 and the relative viability (NCI-H1355; first compound 0.03162 µM) was 0.847. The relative viability (NCI-H1355; first compound 0.1 µM) was 0.894, the relative viability (NCI-H1355; first compound 0.3162 µM) was 0.839 and the relative viability (NCI-H1355; first compound 1 µM) was 0.785. For the same compound, the relative viability (NCI-H838; first compound 0.01 µM) was 1.11, the relative viability (NCI-H838; first compound 0.03162 µM) was 0.964 and the relative viability (NCI-H838; first compound 0.1 µM) was 0.996. The relative viability (NCI-H838; first compound 0.3162 µM) was 1.04, the relative viability (NCI-H838; first compound 1 µM) was 0.602 and the relative viability (LU99A; first compound 0.01 µM) was 0.5. The relative viability (LU99A; first compound 0.03162 µM) was 0.523, the relative viability (LU99A; first compound 0.1 µM) was 0.55 and the relative viability (LU99A; first compound 0.3162 µM) was 0.666. For the same compound, the relative viability (LU99A; first compound 1 µM) was 0.575, the relative viability (NCI-H650; first compound 0.01 µM) was 1.04 and the relative viability (NCI-H650; first compound 0.03162 µM) was 1.04. The relative viability (NCI-H650; first compound 0.1 µM) was 1.21, the relative viability (NCI-H650; first compound 0.3162 µM) was 1.09 and the relative viability (NCI-H650; first compound 1 µM) was 0.865. For the same compound, the relative viability (HCC-15; first compound 0.01 µM) was 1.03, the relative viability (HCC-15; first compound 0.03162 µM) was 0.885 and the relative viability (HCC-15; first compound 0.1 µM) was 0.947. It also gave a relative viability (HCC-15; first compound 0.3162 µM) of 0.966, a relative viability (HCC-15; first compound 1 µM) of 0.868 and a relative viability (NCI-H1915; first compound 0.01 µM) of 1.07. It also gave a relative viability (NCI-H1915; first compound 0.03162 µM) of 1.15, a relative viability (NCI-H1915; first compound 0.1 µM) of 1.06 and a relative viability (NCI-H1915; first compound 0.3162 µM) of 1.14. It also gave a relative viability (NCI-H1915; first compound 1 µM) of 1.07, a relative viability (HARA; first compound 0.01 µM) of 1.06 and a relative viability (HARA; first compound 0.03162 µM) of 0.872. The relative viability (HARA; first compound 0.1 µM) was 1.03, the relative viability (HARA; first compound 0.3162 µM) was 0.801 and the relative viability (HARA; first compound 1 µM) was 0.685. For the same compound, the relative viability (NCI-H2347; first compound 0.01 µM) was 1.08, the relative viability (NCI-H2347; first compound 0.03162 µM) was 1.09 and the relative viability (NCI-H2347; first compound 0.1 µM) was 1.04. It also gave a relative viability (NCI-H2347; first compound 0.3162 µM) of 1.09, a relative viability (NCI-H2347; first compound 1 µM) of 1.11 and a relative viability (NCI-H1651; first compound 0.01 µM) of 0.938. It also gave a relative viability (NCI-H1651; first compound 0.03162 µM) of 1, a relative viability (NCI-H1651; first compound 0.1 µM) of 1.1 and a relative viability (NCI-H1651; first compound 0.3162 µM) of 1.13. It also gave a relative viability (NCI-H1651; first compound 1 µM) of 0.844, a relative viability (NCI-H2126; first compound 0.01 µM) of 0.736 and a relative viability (NCI-H2126; first compound 0.03162 µM) of 0.734. It also gave a relative viability (NCI-H2126; first compound 0.1 µM) of 0.742, a relative viability (NCI-H2126; first compound 0.3162 µM) of 0.815 and a relative viability (NCI-H2126; first compound 1 µM) of 0.75.
